Columns and labels:
[1] = system: PBMCs; assay: Immunophenotyping by flow cytometry of PBMCs of 4 metastatic cancer patients; type: in vivo, human; conditions: of 4 patients; after 15 days of administration
Experimental: (§1) 18 cancer patients completed 2 cycles of 24-470 mg/M^2 PFK-158; 5 of these patients experienced stabilization of their disease (i.e. no growth and no new tumors) and tumor regressions have been observed in multiple patients. For example, a person with renal cell carcinoma who had progressed after all available FDA-approved agents including mTOR and VEGFR inhibitors and IL-2 entered the study (470 mg/M^2). They experienced stabilization of disease by immune-related response criteria (26% reduction in maximum diameters) with multiple tumors regressing and has entered their seventh month of treatment. Of these 18 patients, immunophenotyping by flow cytometry on 4 patients' PBMCs has been carried out. These four patients were administered PFK-158 for 2 weeks and PBMCs were collected at baseline, day 15, and then analyzed by flow cytometry for CD3+CD4+il-17+ cells and CD8+CD137+ T cells.

[2] = system: peripheral blood mononuclear cells; assay: Flow cytometry of peripheral blood mononuclear cells of a breast cancer patient receiving PFK-158; type: in vivo, human; conditions: after 1 week, persisted through treatment
Experimental: An unexpected stability of tumors in multiple patients receiving PFK-158 at doses that were considered to be sub-therapeutic has been observed. […] This breast adenocarcinoma patient received 96 mg/M^2 of PFK-158 every other day for three weeks followed by a one week rest—this cycle was repeated for a total of four cycles. Peripheral blood mononuclear cells were collected on days 1, 8, 15, 22 and 62 and flow cytometry was conducted for a multitude of immunosuppressive cells and activated T cells. […] These cells are the main CD8+ T cells that can infiltrate tumors and differentiate into cytolytic T cells which kill tumor cells. […]
Given the decrease in Th17 cells and increase in effector CD8^+ T cells observed after PFK-158 administration, the ability of PFK-158 to cause an increase in terminally-differentiated CD8^+ effector cells was examined. CD8^+CD57^+CD27^− TCD28^− The breast cancer patient described in Example 7 was administered PFK-158 for 1 cycle and PBMCs were collected at baseline, day 8, 15, 22, and then analyzed for CD8^+CD57^+CD27^− TCD28^− T cells and PD-1. […]
CD57 is a terminally sulfated carbohydrate that is selectively expressed on antigen-specific, and functionally competent memory/effector CD8^+ T cells. […] PBMCs were collected at baseline, day 8, 15, and 22 and CD8^+CD57^+CD27^− CD28^− T cells were analyzed for CD57 expression. […]

[3] = system: γδT17 cells; assay: IL-17A production (ELISA) during in vitro polarization of Vγ9Vδ2 T cells; type: cell-based, human; conditions: PFK-158 every two days of culture, FIG. 17E,F
From the text: (§2) The differentiation of Th17 cells from naïve CD4^+ T cells was induced and, for γδT17 cells, naïve Vγ9Vδ2 T cells were isolated from healthy donors and polarized into IL-17 producing γ6T cells using established methods.
(§3) Human naïve CD4^+ T cells differentiated into Th17 cells or sorted human naïve Vγ9Vδ2 T cells were polarized in vitro and analyzed for PFKFB2-4 mRNA (FIG. 17 A,B), F26BP, and PFKFB3 protein (FIG. 17 C,D). The CD4^+ T cells (during in vitro Th17 differentiation) and Vγ9Vδ2 T cells (during in vitro polarization) were exposed to vehicle (DMSO) or the indicated concentrations of PFK-158 (every two days of the culture period) and IL-17A production was quantified by ELISA (FIG. 17 E,F).

[4] = system: cancer patients; assay: Phase 1 trial of PFK-158 in cancer patients (clinical response, tolerability); type: in vivo
Experimental: A phase 1 trial of PFK-158 in cancer patients is currently being conducted at Georgetown University, UT Southwestern, Md. Anderson Cancer Center and the U. of Louisville (clinicaltrials.gov# NCT02044861). […] Institutional investigators have observed partial tumor regressions in 3 patients with ocular melanoma, ovarian cancer and renal cell carcinoma and de novo stabilization of tumor burden in 2 patients (breast and adenoid cystic carcinoma). A person with ocular melanoma was administered 24 mg/M^2 in cohort 1 of the phase 1 trial of PFK-158—a dose that is markedly lower than that required to cause the known cytotoxic effects of PFK-158. […] Over the course of six months of therapy, several of the patient's hepatic metastases first became necrotic after 2 monthly cycles (hypoattenuation appears dark on CT imaging) and then shrunk after 6 cycles (FIG. 18).
The patient was administered PFK-158 for 4 cycles and their bony metastases were deemed to be stable (FIG. 19, left two panels) and several liver metastases became necrotic (FIG. 19, right panel).
as §1

[5] = system: Th17 cells; assay: IL-17A production (ELISA) during in vitro Th17 differentiation; type: cell-based, human; conditions: PFK-158 every two days of culture, FIG. 17E,F
From the text: as §2, §3

[6] = system: delayed type hypersensitivity to methylated BSA; conditions: mice; cited from earlier work
[7] = system: human CD3+ T cells; conditions: 1-10 μM; anti-CD3/anti-CD28 microbead stimulation; cited from earlier work
[8] = system: imiquimod-induced psoriasis; conditions: mice; cited from earlier work

Compound | patients with a reduction in frequency of Th17 cells [1] [patients] | increase in circulating cancer-reactive CD8+/CD57+/CD27-/CD28- T cells [2] [%] | concentration reducing IL-17A, fold less than required to inhibit neoplastic and endothelial cells growth [3] [fold] | patients with de novo stabilization of tumor burden ([4]; breast and adenoid cystic carcinoma) [patients] | patients with partial tumor regressions ([4]; ocular melanoma, ovarian cancer and renal cell carcinoma) [patients] | patients with stabilization of their disease ([4]; of 18 cancer patients who completed 2 cycles of 24-470 mg/M^2) [patients] | reduction in maximum diameters (immune-related response criteria) ([4]; person with renal cell carcinoma, 470 mg/M^2) [%] | maximum tolerated dose ([4]; phase 1 trial, entered cohort 7, currently at 650 mg/M^2) | concentration reducing IL-17A, fold less than required to inhibit neoplastic and endothelial cells growth [5] [fold] | development of delayed type hypersensitivity to methylated BSA [6] | stimulation of F2,6BP synthesis, 2-[1-14C]-deoxy-D-glucose uptake, lactate secretion, TNF-α secretion and T cell aggregation and proliferation [7] | development of imiquimod-induced psoriasis [8]
O=C(/C=C/c1ccc2ccc(C(F)(F)F)cc2n1)c1ccncc1 [PFK-158, (E)-1-(pyridyn-4-yl)-3-(7-(trifluoromethyl)quinolin-2-yl)-prop-2-en-1-one] | 4 | 36 | ~10 | 2 | 3 | 5 | 26 | without reaching a maximum tolerated dose | ~10 | – | – | –
O=C(C=Cc1cccnc1)c1ccncc1 [3PO, 3-(3-pyridinyl)-1-(4-pyridinyl)-2-propen-1-one] | – | – | – | – | – | – | – | – | – | suppressed | markedly attenuated | suppressed
